The text below walks through data of patent US20150080475A1, “Memantine Protects Inflammation-Related Degeneration of Dopamine Neurons Through Inhibition of Over-Activated Microglia and Release of Neurotrophic Factors From Astroglia” (priority 2009, published 2015).

One test relates to nitric oxide. Description: Nitrite assay (Griess reagent) after LPS. The note with it: 24 and 48 h after LPS stimulation. The class given is cell-based. As for the experimental part: As an indicator of nitric oxide production, the amount of nitrite accumulated in culture supernatant was determined with a colorimetric assay using Griess reagent [1% sulfanilamide, 2.5% H3PO4, 0.1% N-(1-naphthyl)ethylenediamine dihydrochloride]. Briefly, 50 μL of Griess reagent and 50 μL of culture supernatant were incubated in the dark at room temperature for 10 min. After incubation, the absorbance at 540 nm was determined with the Spectra Max Plus microplate spectrophotometer. The sample nitrite concentration was determined from a sodium nitrite standard curve.
Neuron-glia cultures were pretreated for 30 min with MMT (3 μM) or vehicle before LPS stimulation. […] Production of superoxide (30 min after LPS) and iROS (2 h after LPS) was decreased by MMT treatment (FIGS. 6A and 6B). […] The production of PGE2 in cultures pretreated with 3 and 10 μM MMT decreased by 23% and 27% respectively (FIG. 6E).
(In general: Nitrite, measured by Griess reagent, commonly stands in for NO production.)

Another test deals with GDNF. Description: RT-PCR of GDNF mRNA in astroglial cultures. The class given is cell-based, rat. The note with it: memantine 10 μM, time-dependent, 0 min to 24 h. The protocol:
GDNF mediated memantine-induced neurotrophic effects. Rat primary astroglia were exposed to 10 μM memantine for various time points ranging from 0 minute to 24 h. (FIG. 5A) Total RNA was extracted. […] (FIG. 5B) The ratio of densitometry values of GDNF and β-actin was analyzed and normalized to 0 min value. (FIG. 5C) Total protein of astroglial cells was extracted. Western blot analyses were performed with the antibody to GDNF. GAPDH was used as loading control. (FIG. 5D) The ratio of densitometry values of GDNF and GAPDH was analyzed and normalized to 0 min value. Values were expressed as mean±S.E.M. of three independent experiments. *p<0.05, **p<0.01, ***p<0.001, Bonferroni t-test vs 0 min for FIG. 5B and FIG. 5D; (FIG. 5E) Neuron-glia cultures were treated with either control goat IgG (isotype Ab), or goat anti-GDNF, combined with memantine (10 μM) treatment. DA uptake capacity was measured 7 days later. Results were expressed as a percentage of the vehicle-treated control cultures and represented mean±S.E.M. of three independent experiments performed in triplicate. *p<0.05, **p<0.01, ***p<0.001, Bonferroni's test vs control; #p<0.05, Bonferroni t-test vs memantine treated cultures.
Mixed-glia cultures were first prepared from brains of 1-day-old Fisher 344 rat pups, as described previously. […]

The subject of a further test is DA neurons. Description: LPS-induced neurotoxicity in neuron/glia cultures from NADPH oxidase-deficient mice. The class given is cell-based. The note with it: NADPH oxidase-deficient (gp 91 lacking) neuron/glia cultures, preliminary data. The text has this: Results from two sets of experiments support this conclusion. […] Thus, the failure for MMT to protect LPS-induced DA neurons toxicity in NADPH oxidase-deficient neuron/glia cultures implies a critical role of this enzyme in mediating the neuroprotective effect of MMT. The present invention determines the binding site of MMT in microglia.
Timed-pregnant (gestational day 14) adult female Fisher 344 rats were purchased from Charles River Laboratories (Raleigh, N.C., USA). Eight-wk-old (25-30 g) male and female B6.129S6-Cybb^tm1Din(PHOX^−/−) and C57BL/6J (PHOX^+/+) mice were purchased from Jackson Laboratories (Bar Harbor, Me., USA) and maintained in a strict pathogen free environment. The PHOX^−/− mice lack the functional catalytic subunit of the NADPH oxidase complex, gp91. NADPH oxidase is an inducible electron transport system in phagocytic cells that is responsible for the generation of the respiratory burst. PHOX^−/− mice are unable to generate extracellular superoxide in response to LPS or other immunological stimulus. Breeding of the mice was designed to achieve accurate timed-pregnancy±0.5 days. Because the PHOX^−/− mutation is maintained in the C57BL/6J background, the C57BL/6J (PHOX^+/+) mice were used as control animals. Housing, breeding and experimental use of the animals were performed in strict accordance with the National Institutes of Health guidelines. […]

As to `CC12CC3CC(C)(C1)CC(N)(C3)C2.Cl` [MMT, 1-amino-3,5-dimethyladamantane hydrochloride], the “release of NO (measured as nitrite)” value in the test on nitric oxide was “reduced”. The “GDNF mRNA levels” value in the test on GDNF is given as “significant main effects”. In the test on DA neurons, the “neuroprotective effect on LPS-induced neurotoxicity” value is listed as “failed to produce any neuroprotective effect”.
